“Also recorded” adds a separate entry of the source.
Tests used:
low birth weight infants [1] = test: Phase I open label single group clinical study of insulin enriched formula: growth in weight, length, head circumference; type: in vivo, human; conditions: at 6 months; CDC growth tables
Procedure: The effect of insulin enriched formula on low birth weight full term infant was examined. Inclusion criteria for participating in the study included: healthy infants 34-42 weeks gestation (“term born infants”); birth weight above 1,650 g, typically between 1750 gram and 2500 gram; no major congenital malformation or any other illness sign; chronological age under 240 hours; mother is not willing to breastfeed the baby during the study period and signed an informed consent. Infant with a high index of suspect for infection before enrolment, maternal diabetes, and medications given until day 1 of the study were excluded. Observed results regarding weight, length, and head circumference were compared to expected values which were obtained from the CDC growth reference tables (ibid) according to the infants' gender, gestational age and percentile of birth weight (BW). Interpolation or extrapolation was used to determine the percentile and the expected gain of each infant. The expected values are specific to the percentile measure at birth. The percentile of each BW was evaluated according to the gender, gestational age and multiplicity (singleton or twin) using published tables for Israel (Dolberg S. et al., IMAJ, 7, 2005, 311-314). No such data were available with respect to the percentiles of length and of head circumference. It was therefore assumed that the BW percentile of each infant is applicable to each of the other two growth measures. […] The infants' gender, family origin, gestational age at birth, maternal medications, maternal age, chronic diseases in the family and the infant's condition upon enrollment were recorded. […] During the study, the infant's weight, length, head circumference, glucose blood levels, blood count, blood fat, blood chemistry, blood amino acids, insulin antibodies, and serum levels were recorder, as well as food consumption, vomiting, regurgitation and stools frequency were measured and assessed. The possible effect of the insulin enriched formula on growth was evaluated with respect to gain in weight, length, and head circumference. […]

low birth weight infants [2] = test: Clinical studies: safety / side effects of insulin enriched formula; type: in vivo, human
Procedure: Phase I, multi center, non-randomized, open label, single group study to assess the safety of insulin enriched formula on low birth weight infants was conducted in Rabin Medical Center and Laniado Hospital, Israel. The possible effect of the insulin enriched formula on growth of low birth weight infants, born on term (at least 34 weeks of gestation) was also examined in this study. Parents of eligible infants, who met the study criteria, were invited to participate in the study following signing on Informed Consent Form (ICF). From study day 1, the infants received the insulin enriched infant formula ([…], Israel). They were fed with the formula for the first 4 months without the addition of complementary feed. The infants' gender, family origin, gestational age at birth, maternal medications, maternal age, chronic diseases in the family and the infant's condition upon enrollment were recorded. […] At study day 1 and 2, and at 1, 4, 8, 12, 16 and 24 weeks the parents of the infant were asked to come to the neonatal ward for follow up examinations. During the study, the infant's weight, length, head circumference, glucose blood levels, blood count, blood fat, blood chemistry, blood amino acids, insulin antibodies, and serum levels were recorder, as well as food consumption, vomiting, regurgitation and stools frequency were measured and assessed. Infants were to be withdrawn from the study if any serious adverse event or any deterioration in the infant clinical condition had occurred. They were followed up on possible side effects and efficacy measures until 6 months of age. […] A multicenter, double blind, randomized study for studying the effect of the insulin enriched infant formula on the growth of low weight infants was planned to take place in Israel in 2005 (headed by Prof Sirota, Schneider Hospital). Due to low recruitment rate (only 8 premature infants), the study was terminated.

preterm infants [3] = test: Randomized placebo controlled study: gastrointestinal maturation (days to complete enteral feeding); type: in vivo, human; conditions: all infants; control 7.9; P-value=0.2085
Procedure: A Multi-center, two arms, randomized, double-blinded placebo controlled study was conducted to evaluate the effect of insulin-enriched infant formula on preterm infants. In this study, the population of infants included also babies having extremely low birth weight (inclusion criteria included babies weighing over 750 grams). The insulin was given at a concentration range which is mimicking colostrums concentration (at 400 μU/ml. The study primary goal was to determine whether insulin supplement to the basic preterm oral formula enhances gastrointestinal maturation. The gastrointestinal maturation was evaluated by the ability of the premature infants to achieve complete enteral feeds (150-160 ml/kg/day). The infants were hospitalized in the neonatal hospital ward in the same manner as preterm infants whose parents elected not to participate in the study. The infants were randomly assigned to one of two treatment groups: the study product-InsuMealTM as a test group and Placebo supplement as a control group. The parents, the medical team treating the infants and the study monitor were blinded to the treatment arm. From study day 1, the infants in the test group received the InsuMealTM additive mixed with the ready to feed (RTF) preterm […] formula and the control group received a placebo supplement mixed with the same RTF preterm […] formula. […]

preterm infants [4] = test: Randomized placebo controlled study: number of hospitalization days to discharge; type: in vivo, human
Procedure: A Multi-center, two arms, randomized, double-blinded placebo controlled study was conducted to evaluate the effect of insulin-enriched infant formula on preterm infants. In this study, the population of infants included also babies having extremely low birth weight (inclusion criteria included babies weighing over 750 grams). The insulin was given at a concentration range which is mimicking colostrums concentration (at 400 μU/ml. The study primary goal was to determine whether insulin supplement to the basic preterm oral formula enhances gastrointestinal maturation. The gastrointestinal maturation was evaluated by the ability of the premature infants to achieve complete enteral feeds (150-160 ml/kg/day). The infants were hospitalized in the neonatal hospital ward in the same manner as preterm infants whose parents elected not to participate in the study. The infants were randomly assigned to one of two treatment groups: the study product-InsuMealTM as a test group and Placebo supplement as a control group. […] From study day 1, the infants in the test group received the InsuMealTM additive mixed with the ready to feed (RTF) preterm […] formula and the control group received a placebo supplement mixed with the same RTF preterm […] formula. Infant maturation and growth was further assessed by the number of hospitalization days required until the preterm infant could be discharged.

preterm infants [5] = conditions: oral, 4 to 28 days of age, 4 U/kg/day; cited from earlier work
newborn miniature pigs = conditions: oral administration of 85 mU/ml; cited from earlier work

insulin: polypeptide hormone; human insulin administered orally to infants, within infant formula
Effect on head circumference relative to the expected growth (low birth weight infants [1]): 17.6%
Effect on length relative to the expected growth (low birth weight infants [1]): 8.1%
Effect on weight relative to the expected growth (low birth weight infants [1]): 18.1%
Adverse events (low birth weight infants [2]; follow up to 6 months): No deleterious effects; also recorded: no adverse events were observed
Anti-insulin antibodies (low birth weight infants [2]; human, in vivo): did not stimulate the production of anti-insulin antibodies
Hypoglycemia (low birth weight infants [2]; human, in vivo): did not cause hypoglycemia
Number of days to achieve complete enteral feeding (>=150 ml/Kg/day), Mean (preterm infants [3]): 6.4 days
Number of days to discharge, Mean (preterm infants [4]; all infants, control 33.6, P-value=0.2192): 28.8 days
Number of days to discharge, Mean (preterm infants [4]; infant birth weight < 1300 gr, control 47.0, P value=0.0447): 35.8 days
Hypoglycaemia or other adverse effects (preterm infants [5]): without inducing hypoglycaemia or other adverse effects
Lactase activity (preterm infants [5]): increased lactase activity
Intestine ileal mass and lactase activity (newborn miniature pigs): increased

Source: patent US20150086622A1, “GROWTH ENHANCEMENT OF INFANTS” (NUTRINIA LTD., priority 2012, published 2015)
